PubChem BioAssay (NCI)
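Values below derive from 48-hour exposures of cells grown in 96-well plates, with endpoints linearly interpolated between the two concentrations bracketing the appropriate inhibition level. Here, GI50 denotes the concentration required for 50% inhibition of growth. TGI marks complete inhibition of growth.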

Assays:
Assay in all cases: DTP human tumour cell line panel, 48 h
OVCAR-5 ovarian = test system: OVCAR-5 ovarian
HCT-116 colon = test system: HCT-116 colon
LOX IMVI melanoma = test system: LOX IMVI melanoma
CAKI-1 renal = test system: CAKI-1 renal
HOP-92 NSCLC = test system: HOP-92 NSCLC
UACC-62 melanoma = test system: UACC-62 melanoma
U251 CNS = test system: U251 CNS
RPMI-8226 leukemia = test system: RPMI-8226 leukemia
NCI-H522 lung = test system: NCI-H522 lung
OVCAR-4 ovarian = test system: OVCAR-4 ovarian

## COC(=O)[C@@H]1CN(C(=O)CCc2ccccc2)C(=O)N1C(=O)OCc1ccccc1
OVCAR-5 ovarian
  TGI: > 100 µM
HCT-116 colon
  TGI: > 100 µM
LOX IMVI melanoma
  TGI: > 100 µM
CAKI-1 renal
  TGI: > 100 µM
HOP-92 NSCLC
  TGI: > 100 µM
UACC-62 melanoma
  TGI: > 100 µM
U251 CNS
  TGI: > 100 µM
RPMI-8226 leukemia
  TGI: > 100 µM
NCI-H522 lung
  TGI: > 100 µM
OVCAR-4 ovarian
  TGI: > 100 µM

## C#CCOCC12C=CC(O1)C1C(=O)N(C)C(=O)C12 (configuration not stated)
OVCAR-5 ovarian
  TGI: > 100 µM
HCT-116 colon
  TGI: > 100 µM
LOX IMVI melanoma
  TGI: > 100 µM
CAKI-1 renal
  GI50: > 100 µM
  TGI: > 100 µM
HOP-92 NSCLC
  GI50: > 100 µM
  TGI: > 100 µM
UACC-62 melanoma
  TGI: > 100 µM
U251 CNS
  TGI: > 100 µM
RPMI-8226 leukemia
  TGI: > 100 µM
NCI-H522 lung
  TGI: > 100 µM
OVCAR-4 ovarian
  TGI: > 100 µM

## CC1=C2C(=O)c3ccccc3C(=O)[C@H]2[C@H]2CCO[C@H]2O1
OVCAR-5 ovarian
  TGI: 49.2 µM
HCT-116 colon
  TGI: 79 µM
LOX IMVI melanoma
  TGI: 58.4 µM
CAKI-1 renal
  TGI: 46 µM
HOP-92 NSCLC
  TGI: 42.3 µM
UACC-62 melanoma
  TGI: 39.7 µM
U251 CNS
  TGI: 59.3 µM
RPMI-8226 leukemia
  TGI: 70.4 µM
NCI-H522 lung
  TGI: 32 µM
OVCAR-4 ovarian
  TGI: 37.4 µM

## Cc1ccc(/C=N/Nc2cnccn2)s1
OVCAR-5 ovarian
  TGI: > 100 µM
HCT-116 colon
  TGI: > 100 µM
LOX IMVI melanoma
  TGI: > 100 µM
CAKI-1 renal
  TGI: > 100 µM
HOP-92 NSCLC
  TGI: > 100 µM
UACC-62 melanoma
  TGI: > 100 µM
U251 CNS
  TGI: > 100 µM
RPMI-8226 leukemia
  TGI: > 100 µM
NCI-H522 lung
  TGI: > 100 µM
OVCAR-4 ovarian
  TGI: > 100 µM

## COc1ccc(-c2c(N)n(-c3nc4ccccc4s3)c(=O)c3cc([N+](=O)[O-])ccc23)cc1
OVCAR-5 ovarian
  TGI: 56.7 µM
HCT-116 colon
  TGI: > 100 µM
LOX IMVI melanoma
  TGI: 48.3 µM
CAKI-1 renal
  TGI: 48.5 µM
HOP-92 NSCLC
  TGI: > 100 µM
UACC-62 melanoma
  TGI: > 100 µM
U251 CNS
  TGI: 35.2 µM
RPMI-8226 leukemia
  TGI: > 100 µM
NCI-H522 lung
  TGI: 23.5 µM
OVCAR-4 ovarian
  TGI: 68.4 µM

## O=C1C2CC=CCC2C(=O)N1n1c(-c2ccccc2)n[nH]c1=O (configuration not stated)
OVCAR-5 ovarian
  TGI: > 100 µM
HCT-116 colon
  TGI: > 100 µM
LOX IMVI melanoma
  TGI: > 100 µM
CAKI-1 renal
  TGI: > 100 µM
HOP-92 NSCLC
  TGI: > 100 µM
UACC-62 melanoma
  TGI: > 100 µM
U251 CNS
  TGI: > 100 µM
RPMI-8226 leukemia
  TGI: > 100 µM
NCI-H522 lung
  TGI: > 100 µM
OVCAR-4 ovarian
  TGI: > 100 µM

## NC(N)=N/N=C/c1c(-c2ccccc2)nc2n1ccc1nc(-c3ccccc3)c(/C=N/N=C(N)N)n12
OVCAR-5 ovarian
  TGI: > 100 µM
HCT-116 colon
  TGI: > 100 µM
LOX IMVI melanoma
  TGI: > 100 µM
CAKI-1 renal
  TGI: > 100 µM
HOP-92 NSCLC
  TGI: > 100 µM
UACC-62 melanoma
  TGI: > 100 µM
U251 CNS
  TGI: > 100 µM
RPMI-8226 leukemia
  TGI: > 100 µM
NCI-H522 lung
  TGI: > 100 µM
OVCAR-4 ovarian
  TGI: > 100 µM

## CC(=O)OC1C(O)COC(O[C@H]2CC[C@]34C[C@]35CC[C@]3(C)C([C@@]6(C)CC[C@@H](C(C)(C)O)O6)[C@@H](O)C[C@@]3(C)C5C[C@H](OC3OCC(O)C(O)C3O)[C@H]4C2(C)C)C1OC1OCC(O)C(O)C1O (some centres not stated)
OVCAR-5 ovarian
  TGI: > 100 µM
HCT-116 colon
  TGI: > 100 µM
LOX IMVI melanoma
  TGI: > 100 µM
CAKI-1 renal
  TGI: > 100 µM
HOP-92 NSCLC
  TGI: > 100 µM
UACC-62 melanoma
  TGI: > 100 µM
U251 CNS
  TGI: > 100 µM
RPMI-8226 leukemia
  TGI: > 100 µM
NCI-H522 lung
  TGI: > 100 µM
OVCAR-4 ovarian
  TGI: > 100 µM

## CN(C(=O)Cc1cc(Cl)c(Cl)cc1N=C=S)[C@H]1CCCC[C@@H]1N1CCCC1
OVCAR-5 ovarian
  TGI: 31.7 µM
HCT-116 colon
  TGI: 21.7 µM
LOX IMVI melanoma
  TGI: 13.3 µM
CAKI-1 renal
  TGI: 29.2 µM
HOP-92 NSCLC
  TGI: 21.9 µM
UACC-62 melanoma
  TGI: 30.3 µM
U251 CNS
  TGI: 28.2 µM
RPMI-8226 leukemia
  TGI: 28 µM
NCI-H522 lung
  TGI: 27.7 µM
OVCAR-4 ovarian
  TGI: 26.3 µM

## CCOC(=O)/C(C(=S)Nc1ccccc1)=C(/N)N1CCCC1
OVCAR-5 ovarian
  TGI: > 100 µM
HCT-116 colon
  TGI: > 100 µM
LOX IMVI melanoma
  TGI: > 100 µM
CAKI-1 renal
  TGI: > 100 µM
HOP-92 NSCLC
  TGI: 53.2 µM
UACC-62 melanoma
  TGI: > 100 µM
U251 CNS
  TGI: > 100 µM
RPMI-8226 leukemia
  TGI: > 100 µM
NCI-H522 lung
  TGI: > 100 µM
OVCAR-4 ovarian
  TGI: > 100 µM

## CCOC(=O)c1sc2c(c1OC(=O)c1cccs1)c(=O)n(-c1ccccc1)c(=S)n2-c1ccccc1
OVCAR-5 ovarian
  TGI: 50.7 µM
HCT-116 colon
  TGI: 22 µM
LOX IMVI melanoma
  TGI: 36.3 µM
CAKI-1 renal
  TGI: 75.8 µM
HOP-92 NSCLC
  TGI: 52.7 µM
UACC-62 melanoma
  TGI: 33.4 µM
U251 CNS
  TGI: 31.4 µM
RPMI-8226 leukemia
  TGI: 31.3 µM
NCI-H522 lung
  TGI: 27.1 µM
OVCAR-4 ovarian
  TGI: 27.5 µM

## Cc1ccc(N2C(=O)C3c4[nH]c5ccccc5c4C4CCC(C(C)(C)C)CC4C3C2=O)cc1 (configuration not stated)
OVCAR-5 ovarian
  TGI: 39.3 µM
HCT-116 colon
  TGI: 24.6 µM
LOX IMVI melanoma
  TGI: 26.6 µM
CAKI-1 renal
  TGI: 23.2 µM
HOP-92 NSCLC
  TGI: 32.9 µM
UACC-62 melanoma
  TGI: 31 µM
U251 CNS
  TGI: 16.1 µM
RPMI-8226 leukemia
  TGI: > 41.5 µM
NCI-H522 lung
  TGI: 26.5 µM
OVCAR-4 ovarian
  TGI: 22.7 µM

## CCCCCCNC(=O)c1cnc(Cl)cn1
OVCAR-5 ovarian
  TGI: 32.5 µM
HCT-116 colon
  TGI: 30.7 µM
LOX IMVI melanoma
  TGI: 27.7 µM
CAKI-1 renal
  TGI: 2.39 µM
HOP-92 NSCLC
  TGI: > 100 µM
UACC-62 melanoma
  TGI: 33.4 µM
U251 CNS
  TGI: 23.6 µM
RPMI-8226 leukemia
  TGI: > 100 µM
NCI-H522 lung
  TGI: 0.552 µM
OVCAR-4 ovarian
  TGI: 47.9 µM

## O=C(N=S(NC(=O)c1ccccc1)C(Cl)(Cl)Cl)c1ccccc1 (configuration not stated)
OVCAR-5 ovarian
  TGI: 50.7 µM
HCT-116 colon
  TGI: 28.8 µM
LOX IMVI melanoma
  TGI: 39.3 µM
CAKI-1 renal
  TGI: 54.9 µM
HOP-92 NSCLC
  TGI: > 100 µM
UACC-62 melanoma
  TGI: > 100 µM
U251 CNS
  TGI: > 90.7 µM
RPMI-8226 leukemia
  TGI: > 100 µM
NCI-H522 lung
  TGI: 51.1 µM
OVCAR-4 ovarian
  TGI: 38 µM

## C=C1CC2OC2(C(=O)O[C@H]2CCC3[C@@H]4CCC5=CC(=O)CC[C@]5(C)C4CC[C@@]32C)C1=O (some centres not stated)
OVCAR-5 ovarian
  TGI: 38.4 µM
HCT-116 colon
  TGI: 13.8 µM
LOX IMVI melanoma
  TGI: 21.1 µM
CAKI-1 renal
  TGI: 25 µM
HOP-92 NSCLC
  TGI: 23.5 µM
UACC-62 melanoma
  TGI: 28.7 µM
U251 CNS
  TGI: 21.2 µM
RPMI-8226 leukemia
  TGI: 5.79 µM
NCI-H522 lung
  TGI: 8 µM
OVCAR-4 ovarian
  TGI: 18.4 µM

## COc1nc2c(c(=O)n1C)N(C(C)=O)C1C(N2)OCC(OC(C)=O)C1OC(C)=O (configuration not stated)
OVCAR-5 ovarian
  TGI: > 10 µM
HCT-116 colon
  TGI: > 10 µM
LOX IMVI melanoma
  TGI: > 10 µM
CAKI-1 renal
  TGI: > 10 µM
HOP-92 NSCLC
  TGI: > 10 µM
UACC-62 melanoma
  TGI: > 10 µM
U251 CNS
  TGI: > 10 µM
RPMI-8226 leukemia
  TGI: > 10 µM
NCI-H522 lung
  TGI: > 10 µM
OVCAR-4 ovarian
  TGI: > 10 µM
